Assay results taken from patent US4892740A, “Orally administrable pharmaceutical preparation of improved flavoring characteristics” (Taisho Pharmaceutical Co., Ltd., priority 1987, dated 1990).

Assay: Blood concentration of TE-031 after oral administration to Beagle dogs (bioassay method)
Assay type: in vivo
Conditions: dog, male Beagle dogs
Protocol: Test Animals Five male Beagle dogs weighing 10 kg were used as experimental animals. Sample The pharmaceutical preparation obtained in Example 1 (coated particles containing 39% of TE-031 prepared by using AEA powder having an average particle diameter of 16 microns as the powder bed) was used in an amount of 100 mg as TE-031. Testing procedure The sample was orally administered together with water to the experimental animals, and the concentration of TE-031 in the blood was measured by the bioassay method. Then after a period of 10 days during which the sample was not administered, a capsule containing 100 mg of the bulk of TE-031 was orally administered as a control together with water. The concentration of TE-031 in the blood was likewise measured by bioassay.

An AUC (100 mg as TE-031, read-out: area below the blood level curve) of 42400 ng·h/mL, a Cmax (100 mg as TE-031, read-out: maximum blood level) of 3060 ng/mL and a Tmax (100 mg as TE-031, read-out: time of highest blood level) of 2 h were found for `CC[C@H]1OC(=O)[C@H](C)[C@@H](O[C@H]2C[C@@](C)(OC)[C@@H](O)[C@H](C)O2)[C@H](C)[C@@H](O[C@@H]2O[C@H](C)C[C@H](N(C)C)[C@H]2O)[C@](C)(OC)C[C@@H](C)C(=O)[C@H](C)[C@@H](O)[C@]1(C)O` [bulk, 6-O-methylerythromycin A] in this work.
